Experimental data taken from the supplement of paper PMC10307832.

Key:
Assay in all cases: relative viability (nuclei count vs DMSO), 5 days (fraction); higher = more cells survive
[1] = test system: CAL-12T
Summary of the method: (§1)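 After 5 days of treatment, lung cancer cells in 1536-well plates were fixed and stained in a single step (final 0.05% Triton X-100, 1% formaldehyde, 1 ug/ml Hoechst) and their nuclei counted on 4× images. Treatment had been applied by pin tool the day after seeding as one drug alone or as a fixed anchor-drug dose with five library-drug doses (not always all listed) in √10 steps. Relative viability is the nuclei count of treated wells divided by that of vehicle wells, and values are medians of duplicate plates.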

[2] = test system: NCI-H2023
Summary of the method: as §1

[3] = test system: BEN
Summary of the method: as §1

[4] = test system: NCI-H1915
Summary of the method: as §1

[5] = test system: NCI-H520
Summary of the method: as §1

[6] = test system: NCI-H2087
Summary of the method: as §1

[7] = test system: NCI-H596
Summary of the method: as §1

[8] = test system: 201T
Summary of the method: as §1

[9] = test system: NCI-H460
Summary of the method: as §1

[10] = test system: NCI-H1650
Summary of the method: as §1

[11] = test system: NCI-H441
Summary of the method: as §1

[12] = test system: A-427
Summary of the method: as §1

[13] = test system: LCLC-97TM1
Summary of the method: as §1

[14] = test system: NCI-H1944
Summary of the method: as §1

[15] = test system: NCI-H727
Summary of the method: as §1

[16] = test system: PC-3 [JPC-3]
Summary of the method: as §1

[17] = test system: H3255
Summary of the method: as §1

[18] = test system: NCI-H1651
Summary of the method: as §1

[19] = test system: LC-2-ad
Summary of the method: as §1

Nc1ccn([C@@H]2O[C@H](CO)[C@@H](O)[C@@H]2O)c(=O)n1 [Cytarabine] + CC1(C)CCC(c2ccc(Cl)cc2)=C(CN2CCN(c3ccc(C(=O)NS(=O)(=O)c4ccc(N[C@H](CCN5CCOCC5)CSc5ccccc5)c(S(=O)(=O)C(F)(F)F)c4)cc3)CC2)C1 [Navitoclax] (partner 0.5 µM) was tested, and the relative viability ([1]; first compound 0.005 µM) was 1.24, the relative viability ([1]; first compound 0.01581 µM) was 1.4 and the relative viability ([1]; first compound 0.05 µM) was 1.13. It also gave a relative viability ([1]; first compound 0.1581 µM) of 0.598, a relative viability ([1]; first compound 0.5 µM) of 0.244 and a relative viability ([2]; first compound 0.005 µM) of 0.549. It also gave a relative viability ([2]; first compound 0.01581 µM) of 0.356, a relative viability ([2]; first compound 0.05 µM) of 0.195 and a relative viability ([2]; first compound 0.1581 µM) of 0.108. For the same molecule, the relative viability ([2]; first compound 0.5 µM) was 0.103, the relative viability ([3]; first compound 0.005 µM) was 0.059 and the relative viability ([3]; first compound 0.01581 µM) was 0.0619. For the same molecule, the relative viability ([3]; first compound 0.05 µM) was 0.159, the relative viability ([3]; first compound 0.1581 µM) was 0.0433 and the relative viability ([3]; first compound 0.5 µM) was 0.0457. The relative viability ([4]; first compound 0.005 µM) was 0.799, the relative viability ([4]; first compound 0.01581 µM) was 0.719 and the relative viability ([4]; first compound 0.05 µM) was 0.714. The relative viability ([4]; first compound 0.1581 µM) was 0.411, the relative viability ([4]; first compound 0.5 µM) was 0.386 and the relative viability ([5]; first compound 0.005 µM) was 0.955. For the same molecule, the relative viability ([5]; first compound 0.01581 µM) was 0.902, the relative viability ([5]; first compound 0.05 µM) was 1.14 and the relative viability ([5]; first compound 0.1581 µM) was 0.904. It also gave a relative viability ([5]; first compound 0.5 µM) of 0.781, a relative viability ([6]; first compound 0.005 µM) of 0.973 and a relative viability ([6]; first compound 0.01581 µM) of 1.04. The relative viability ([6]; first compound 0.05 µM) was 0.924, the relative viability ([6]; first compound 0.1581 µM) was 0.542 and the relative viability ([6]; first compound 0.5 µM) was 0.452. It also gave a relative viability ([7]; first compound 0.005 µM) of 0.874, a relative viability ([7]; first compound 0.01581 µM) of 0.894 and a relative viability ([7]; first compound 0.05 µM) of 0.611. It also gave a relative viability ([7]; first compound 0.1581 µM) of 0.558, a relative viability ([7]; first compound 0.5 µM) of 0.413 and a relative viability ([8]; first compound 0.005 µM) of 1.24. For the same molecule, the relative viability ([8]; first compound 0.01581 µM) was 1.28, the relative viability ([8]; first compound 0.05 µM) was 1.19 and the relative viability ([8]; first compound 0.1581 µM) was 1.16. It also gave a relative viability ([8]; first compound 0.5 µM) of 1.14, a relative viability ([9]; first compound 0.005 µM) of 1.06 and a relative viability ([9]; first compound 0.01581 µM) of 1.16. It also gave a relative viability ([9]; first compound 0.05 µM) of 0.323, a relative viability ([9]; first compound 0.1581 µM) of 0.0167 and a relative viability ([9]; first compound 0.5 µM) of 0.0173. The relative viability ([10]; first compound 0.005 µM) was 1.11, the relative viability ([10]; first compound 0.01581 µM) was 1.24 and the relative viability ([10]; first compound 0.05 µM) was 0.616. It also gave a relative viability ([10]; first compound 0.1581 µM) of 0.355, a relative viability ([10]; first compound 0.5 µM) of 0.18 and a relative viability ([11]; first compound 0.005 µM) of 0.547. It also gave a relative viability ([11]; first compound 0.01581 µM) of 0.648, a relative viability ([11]; first compound 0.05 µM) of 0.556 and a relative viability ([11]; first compound 0.1581 µM) of 0.176. It also gave a relative viability ([11]; first compound 0.5 µM) of 0.161, a relative viability ([12]; first compound 0.005 µM) of 0.813 and a relative viability ([12]; first compound 0.01581 µM) of 0.496. The relative viability ([12]; first compound 0.05 µM) was 0.257, the relative viability ([12]; first compound 0.1581 µM) was 0.154 and the relative viability ([12]; first compound 0.5 µM) was 0.16. The relative viability ([13]; first compound 0.005 µM) was 0.401, the relative viability ([13]; first compound 0.01581 µM) was 0.283 and the relative viability ([13]; first compound 0.05 µM) was 0.171. It also gave a relative viability ([13]; first compound 0.1581 µM) of 0.107, a relative viability ([13]; first compound 0.5 µM) of 0.115 and a relative viability ([14]; first compound 0.005 µM) of 0.605. It also gave a relative viability ([14]; first compound 0.01581 µM) of 0.363, a relative viability ([14]; first compound 0.05 µM) of 0.268 and a relative viability ([14]; first compound 0.1581 µM) of 0.198. The relative viability ([14]; first compound 0.5 µM) was 0.201, the relative viability ([15]; first compound 0.005 µM) was 0.372 and the relative viability ([15]; first compound 0.01581 µM) was 0.295. The relative viability ([15]; first compound 0.05 µM) was 0.238, the relative viability ([15]; first compound 0.1581 µM) was 0.181 and the relative viability ([15]; first compound 0.5 µM) was 0.182. For the same molecule, the relative viability ([16]; first compound 0.005 µM) was 0.753, the relative viability ([16]; first compound 0.01581 µM) was 0.774 and the relative viability ([16]; first compound 0.05 µM) was 0.7. It also gave a relative viability ([16]; first compound 0.1581 µM) of 0.605, a relative viability ([16]; first compound 0.5 µM) of 0.556 and a relative viability ([17]; first compound 0.005 µM) of 0.451. For the same molecule, the relative viability ([17]; first compound 0.01581 µM) was 0.506, the relative viability ([17]; first compound 0.05 µM) was 0.411 and the relative viability ([17]; first compound 0.1581 µM) was 0.325. It also gave a relative viability ([17]; first compound 0.5 µM) of 0.332, a relative viability ([18]; first compound 0.005 µM) of 0.993 and a relative viability ([18]; first compound 0.01581 µM) of 1.18. For the same molecule, the relative viability ([18]; first compound 0.05 µM) was 1.24, the relative viability ([18]; first compound 0.1581 µM) was 0.625 and the relative viability ([18]; first compound 0.5 µM) was 0.3. It also gave a relative viability ([19]; first compound 0.005 µM) of 0.385, a relative viability ([19]; first compound 0.01581 µM) of 0.328 and a relative viability ([19]; first compound 0.05 µM) of 0.268. The relative viability ([19]; first compound 0.1581 µM) was 0.2 and the relative viability ([19]; first compound 0.5 µM) was 0.188.
